Source: paper PMC5453931, “Cathelicidin-trypsin inhibitor loop conjugate represents a promising antibiotic candidate with protease stability” (Scientific Reports, 2017)
In brackets after ≈: the same amount, converted by molar mass. Where a SMILES comes first, the peptide text is derived from it. Bridges are numbered along the chain shown (N, C = ends).

Columns and labels:
E. coli 08040726 [1] = format: cell-based; conditions: 08040726, 18 h
Description: (§1) A two-fold broth microdilution method described in our previous paper was used to determine the antimicrobial activities of parental and hybrid peptides. More than 30 strains including Gram-negative bacteria, Gram-positive bacteria and fungi were used in the current assay, in which the standard strains were stored in our lab and the clinical strains were collected from local hospitals. Briefly, bacteria were incubated in Mueller-Hinton broth (MH broth) at 37 °C to exponential phase and diluted to 10^6 CFU/mL. A serial dilution of peptide sample were prepared in 96-well microtiter plates (50 μL) and mixed with equal volume of microbial inoculums (50 μL). The plate was slowly shaken in the microbial incubator, and measured at A595 after incubation at 37 °C for 18 h. The minimal concentrations at which no microbial growth occurred were recorded as MIC (minimal inhibitory concentration) values. The traditional antibiotic ampicillin was used as positive control. The results are shown in an average of the MICs obtained from three independent experiments.

E. coli 08040726 [2] = experiment: MIC, two-fold broth microdilution (second listing of the strain number); format: cell-based; conditions: Gram-negative, MH broth, 37 °C, 18 h, mean of three independent experiments in duplicates
Description: as §1

Aeromonas sobria = experiment: microbe, parasite or virus in culture; format: cell-based; conditions: Aquatic pathogenic bacteria; two-fold broth microdilution, 37 °C, 18 h; mean of three independent experiments in duplicates
Description: as §1

Aeromonas veronii = experiment: microbe, parasite or virus in culture; format: cell-based; conditions: Aquatic pathogenic bacteria; two-fold broth microdilution, 37 °C, 18 h; mean of three independent experiments in duplicates
Description: as §1

[3] = tested on: Bacillus subtilis 08042313; experiment: microbe, parasite or virus in culture; format: cell-based; conditions: 08042313, 18 h
Description: as §1

[4] = tested on: Candida albicans 08030102; experiment: microbe, parasite or virus in culture; format: cell-based; conditions: 08030102, 18 h
Description: as §1

Candida glabrata 08A802 = experiment: microbe, parasite or virus in culture; format: cell-based; conditions: 08A802, 18 h
Description: as §1

E. Coli 08032823 = experiment: microbe, parasite or virus in culture; format: cell-based; conditions: 08032823, 18 h
Description: as §1

Edwardsiella tarda = experiment: microbe, parasite or virus in culture; format: cell-based; conditions: 18 h
Description: as §1

[5] = tested on: Enterococcus faecium 08052315; experiment: microbe, parasite or virus in culture; format: cell-based; conditions: 08052315, 18 h
Description: as §1

[6] = tested on: Escherichia coli ATCC25922; experiment: microbe, parasite or virus in culture; format: cell-based; conditions: ATCC25922, 18 h
Description: as §1

K. Pneumoniae 08031012 = experiment: microbe, parasite or virus in culture; format: cell-based; conditions: Gram-negative; two-fold broth microdilution, MH broth, 37 °C, 18 h; mean of three independent experiments in duplicates
Description: as §1

K. Pneumoniae 08040202 = experiment: microbe, parasite or virus in culture; format: cell-based; conditions: Gram-negative; two-fold broth microdilution, MH broth, 37 °C, 18 h; mean of three independent experiments in duplicates
Description: as §1

[7] = tested on: Nocardia asteroides 08052412; experiment: microbe, parasite or virus in culture; format: cell-based; conditions: 18 h
Description: as §1

P. Aeruginosa 08021015 = experiment: microbe, parasite or virus in culture; format: cell-based; conditions: 08021015, 18 h
Description: as §1

Proteus mirabilis 1376 = experiment: microbe, parasite or virus in culture; format: cell-based; conditions: 1376, 18 h
Description: as §1

S. Aureus 08032615 = experiment: microbe, parasite or virus in culture; format: cell-based; conditions: 08032615, 18 h
Description: as §1

S. Aureus 08032706 = experiment: microbe, parasite or virus in culture; format: cell-based; conditions: Gram-positive; two-fold broth microdilution, MH broth, 37 °C, 18 h; mean of three independent experiments in duplicates
Description: as §1

S. Aureus 08032810 = experiment: microbe, parasite or virus in culture; format: cell-based; conditions: Gram-positive; two-fold broth microdilution, MH broth, 37 °C, 18 h; mean of three independent experiments in duplicates
Description: as §1

S. Maltophilia 090223 = experiment: microbe, parasite or virus in culture; format: cell-based; conditions: 090223, 18 h
Description: as §1

Vibrio brasiiensis = experiment: microbe, parasite or virus in culture; format: cell-based; conditions: 18 h
Description: as §1

Vibrio cholerae = experiment: microbe, parasite or virus in culture; format: cell-based; conditions: 18 h
Description: as §1

Vibrio harveyi = experiment: microbe, parasite or virus in culture; format: cell-based; conditions: 18 h
Description: as §1

E. Coli 08032813 = experiment: MIC, two-fold broth microdilution; format: cell-based; conditions: Gram-negative; two-fold broth microdilution, MH broth, 37 °C, 18 h; mean of three independent experiments in duplicates
In short: (§2)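 MH broth, 2-fold serial peptide dilution; inoculum 10^6 CFU/mL before equal-volume mixing. 37 °C, 18 h, gentle shaking, A595 read. MIC = no-growth endpoint, mean of 3 independent runs.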

[8] = tested on: Staphylococcus epidermidis; experiment: MIC, two-fold broth microdilution; format: cell-based; conditions: Gram-positive; two-fold broth microdilution, MH broth, 37 °C, 18 h; mean of three independent experiments in duplicates
In short: as §2

Vibrio Parahaemolyticus = experiment: MIC, two-fold broth microdilution; format: cell-based; conditions: Aquatic pathogenic bacteria; two-fold broth microdilution, 37 °C, 18 h; mean of three independent experiments in duplicates
In short: as §2

08030209 = experiment: microbe, parasite or virus in culture; format: cell-based, Arcyria cinerea; conditions: Fungi; two-fold broth microdilution, 37 °C, 18 h; mean of three independent experiments in duplicates
Description: as §1

trypsin = experiment: Trypsin inhibition assay (NBLAN hydrolysis, Dixon method); format: biochemical; conditions: 50 mM Tris–HCl pH 7.8, trypsin 0.1 mg/mL, 5 min pre-incubation at 37 °C, substrate NBLAN 48, 96, 192 μg/mL, 405 nm
Description: The inhibition effect on the hydrolysis of synthetic chromogenic substrate by trypsin was assayed in 50 mM Tris–HCl, pH 7.8 buffer at room temperature. The trypsin of final concentration of 0.1 mg/mL and different amounts of the hybrid peptide (final concentrations ranging from 0 to 0.16 μg/mL) were pre-incubated for 5 min at 37 °C. N-α-Benzoyl-DL-arginine p-nitroanilide hydrochloride (NBLAN) was used as a substrate for trypsin. The reaction was initiated by the addition of NBLAN with a final concentration of 48, 96 and 192 μg/mL, respectively. The formation of yellow product, p-nitroaniline was monitored continuously at 405 nm[61]. The inhibition constant Ki of the hybrid peptides were determined according to the method of Dixon (1953)[62].

CC[C@H](C)[C@@H]1NC(=O)[C@H](CO)NC(=O)[C@H](CCCCN)NC(=O)[C@H]([C@@H](C)O)NC(=O)[C@H](Cc2c[nH]c3ccccc23)NC(=O)[C@@H](NC(=O)[C@H](Cc2ccccc2)NC(=O)[C@H](CCCCN)NC(=O)[C@H](CCCCN)NC(=O)[C@@H](NC(=O)[C@H](C)NC(=O)[C@H](CCCNC(=N)N)NC(=O)[C@H](CCCNC(=N)N)NC(=O)[C@@H](NC(=O)[C@H](CO)NC(=O)[C@H](CCCCN)NC(=O)[C@H](CC(C)C)NC(=O)[C@H](CC(C)C)NC(=O)[C@H](CCCNC(=N)N)NC(=O)[C@H](CCCCN)NC(=O)[C@H](Cc2ccccc2)NC(=O)[C@H](Cc2ccccc2)NC(=O)[C@@H](N)CCCCN)C(C)C)C(C)C)CSSC[C@@H](C(=O)O)NC(=O)[C@@H]2CCCN2C(=O)[C@H](CCCCN)NC(=O)[C@@H]2CCCN2C(=O)[C@@H]2CCCN2C1=O [H3TI] (H-KFFKRLLKSVRRAVKKFCWTKSIPPKPC-OH; disulfide 18-28)
MIC E. coli 08040726 (E. coli 08040726 [1]): 9.38 µg/mL (≈ 2.77 µM) | MIC E. Coli 08040726 (second line with this strain number) (E. coli 08040726 [2]): — (no detectable activity in MIC assay in dose of 200 µg/mL or in trypsin inhibition assay at concentration of 160 μg/mL) | MIC Aeromonas sobria (Aeromonas sobria): — (no detectable activity in MIC assay in dose of 200 µg/mL or in trypsin inhibition assay at concentration of 160 μg/mL) | MIC Aeromonas veronii (Aeromonas veronii): — (no detectable activity in MIC assay in dose of 200 µg/mL or in trypsin inhibition assay at concentration of 160 μg/mL) | MIC Bacillus subtilis 08042313 [3]: 9.38 µg/mL (≈ 2.77 µM) | MIC Candida albicans 08030102 [4]: 4.69 µg/mL (≈ 1.38 µM) | MIC Candida glabrata 08A802 (Candida glabrata 08A802): 4.69 µg/mL (≈ 1.38 µM) | MIC E. Coli 08032823 (E. Coli 08032823): 37.5 µg/mL (≈ 11.1 µM) | MIC Edwardsiella tarda (Edwardsiella tarda): 37.5 µg/mL (≈ 11.1 µM) | MIC Enterococcus faecium 08052315 [5]: 9.38 µg/mL (≈ 2.77 µM) | MIC Escherichia coli ATCC25922 [6]: 37.5 µg/mL (≈ 11.1 µM) | MIC K. Pneumoniae 08031012 (K. Pneumoniae 08031012): — (no detectable activity in MIC assay in dose of 200 µg/mL or in trypsin inhibition assay at concentration of 160 μg/mL) | MIC K. Pneumoniae 08040202 (K. Pneumoniae 08040202): — (no detectable activity in MIC assay in dose of 200 µg/mL or in trypsin inhibition assay at concentration of 160 μg/mL) | MIC Nocardia asteroides 08052412 [7]: 18.75 µg/mL (≈ 5.53 µM) | MIC P. Aeruginosa 08021015 (P. Aeruginosa 08021015): 37.5 µg/mL (≈ 11.1 µM) | MIC Proteus mirabilis 1376 (Proteus mirabilis 1376): 37.5 µg/mL (≈ 11.1 µM) | MIC S. Aureus 08032615 (S. Aureus 08032615): 37.5 µg/mL (≈ 11.1 µM) | MIC S. Aureus 08032706 (S. Aureus 08032706): — (no detectable activity in MIC assay in dose of 200 µg/mL or in trypsin inhibition assay at concentration of 160 μg/mL) | MIC S. Aureus 08032810 (S. Aureus 08032810): — (no detectable activity in MIC assay in dose of 200 µg/mL or in trypsin inhibition assay at concentration of 160 μg/mL) | MIC S. Maltophilia 090223 (S. Maltophilia 090223): 18.75 µg/mL (≈ 5.53 µM) | MIC Vibrio brasiiensis (Vibrio brasiiensis): 18.75 µg/mL (≈ 5.53 µM) | MIC Vibrio cholerae (Vibrio cholerae): 75 µg/mL (≈ 22.1 µM) | MIC Vibrio harveyi (Vibrio harveyi): 37.5 µg/mL (≈ 11.1 µM) | MIC E. Coli 08032813 (E. Coli 08032813): — (no detectable activity in MIC assay in dose of 200 µg/mL or in trypsin inhibition assay at concentration of 160 μg/mL) | MIC Staphylococcus epidermidis [8]: — (no detectable activity in MIC assay in dose of 200 µg/mL or in trypsin inhibition assay at concentration of 160 μg/mL) | MIC Vibrio Parahaemolyticus (Vibrio Parahaemolyticus): 4.69 µg/mL (≈ 1.38 µM) | MIC Arcyria cinerea 08030209 08030209: — (no detectable activity in MIC assay in dose of 200 µg/mL or in trypsin inhibition assay at concentration of 160 μg/mL) | Ki (trypsin): 5.5 µM
